For 87 molecules, melting point results are on record in a melting point compilation (Tetko et al.; mined from patent text by program, amines drawn as free bases though some values may be those of a salt).

The melting point is the temperature, or range, at which the solid turns liquid.

Consider `COc1ccc(CSc2nnc(-c3ccc4ncsc4c3)o2)cc1C#N`, for which the melting point was 181 to 182 °C.

In the case of `CCCC1=CC(C)(C)Oc2c(OCC)cc(Cc3cnc(N)nc3N)cc21`, the melting point lay within 208 to 209 °C.

Consider `O=C1OCCN1CCN1CCN(Cc2ccccc2)CC1`, for which the melting point lay in the range of 82 to 84 °C.

The molecule `Oc1ccc(Oc2ccc(I)cc2)cc1` had a melting point of 119 to 121 °C.

On to `CCCOc1ccc(-c2scc(-c3ccccc3Cl)c2CC(=O)NC(=N)NCCCO)cc1`, for which the melting point is 49 to 50 °C.

As for `ClCc1nc2cc(Cl)cc(Cl)c2o1`, the melting point was in the range of 52 to 53 °C.

As to `COc1cc(OC)cc(-c2nc[nH]c2-c2ccc(N(C)C)cc2)c1`, the melting point was 79 to 81.1 °C.

`COCCCNC(=O)c1cnn(C)c1C(=O)Nc1ccn2nc(-c3ccccc3)nc2c1` returned a melting point of 191 to 193 °C.

Regarding `Oc1ccc(Oc2ncc(Br)cn2)cc1`, the melting point is 178 °C.

Consider `CC1=CC(=NO)CC(c2cccc(Cl)c2)N1` (configuration not stated), for which the melting point was 88 °C.

Molecule `CC1(CSc2ccc(N)c([N+](=O)[O-])c2)CC1(Cl)Cl` (configuration not stated) showed a melting point of 76 to 78 °C.

`Fc1c(F)c(C(F)(F)F)c(F)c(F)c1Nc1nc(Cl)nc(Cl)c1Cl` registered a melting point of 152 to 153 °C.

In the case of `NC(=O)c1cc(F)c(NC2CCNCC2)cc1F`, the melting point lay within 188 to 190 °C.

On to `CN(C)C(=O)Nc1ccc(OCCCC(=O)c2ccccc2)c(Cl)c1`, for which the melting point was in the range of 129 to 130 °C.

Turning to `CN1CCN(c2ccc(C(=O)NC3CCCNC(=O)C3)cc2)CC1` (configuration not stated), the melting point was in the range of 232 to 234 °C.

Turning to `NC(Cc1nc2cc(Cl)ccc2nc1CP(=O)(O)O)C(=O)O` (configuration not stated), the melting point lay within 181 to 192 °C.

Molecule `N#Cc1cc(=O)c(-c2ccccc2)co1` had a melting point of 177 to 179 °C.

In turn, `Cc1cc([N+](=O)[O-])cc(C)c1Oc1ccc(O)c(Cc2ccc(F)cc2)c1` displayed a melting point of 127 to 132 °C.

The molecule `Cc1cccc(-c2nc(-c3ccc(S(C)(=O)=O)cc3)sc2-c2ccnc(C)c2)c1` had a melting point of 134 to 138 °C.

`NS(=O)(=O)OCCOc1cccc(O)c1` displayed a melting point of 56 to 60 °C.

As for `CC1(C)Oc2ccc(C#N)cc2C(n2ccc(-c3ccc([N+](=O)[O-])cc3)cc2=O)C1O` (configuration not stated), the melting point is 278 to 284 °C.

As for `O=C(OCc1ccccc1)C1N2C(=O)C(NC(c3ccccc3)(c3ccccc3)c3ccccc3)C2SC12CCN(c1ccccc1)CC2` (configuration not stated), the melting point fell in the range of 200 to 201 °C.

In the case of `COc1ccc2oc(C(=O)c3cc(F)ccc3F)cc2c1`, the melting point was in the range of 75 to 78 °C.

For the molecule `CC(C)c1nsc2ccc(-n3c(=O)cc(C(F)(F)F)n(C)c3=O)cc12`, the melting point fell in the range of 139 to 140 °C.

Regarding `CCOC(=O)c1cn2c(C)c(C)nc2c(O)c1CCC(=O)c1ccccc1`, the melting point is 172 to 174 °C.

For `CCS(=O)(=O)c1ccc(-c2coc3ccc(-c4nnc(C)o4)nc23)cc1`, the melting point lay in the range of 246 to 247 °C.

The molecule `CC(C)(C)OC(=O)Nc1ccc(-c2ccc(-c3ccccc3)cc2)cc1N` registered a melting point of 206 to 207 °C.

Consider `O=S(=O)(Nc1n[nH]c(SCc2ccc(Oc3ccc(F)cc3)cc2)c1-c1ccccn1)c1c(Cl)cccc1Cl`, for which the melting point fell in the range of 185 to 186 °C.

For `Cn1ncnc1COc1nc2c(-c3ccccc3F)nncn2c1-c1ccccc1`, the melting point worked out at 195 °C.

`OCCCC(c1ccccc1)C(O)(c1ccccc1)c1ccccc1` (configuration not stated) gave a melting point of 120 to 122 °C.

The molecule `Cc1cc(C(O)(C(F)(F)F)C(F)(F)F)cc(C)c1NCCC(=O)O` had a melting point of 175 to 176 °C.

The molecule `C=CCOc1cc(-n2c(OC)nc(C(F)(F)F)cc2=O)c(F)cc1Br` returned a melting point of 107 to 110 °C.

In turn, `N#CN=C1NCCN1Cc1ccccc1` returned a melting point of 120 to 122 °C.

`O=C(O)[C@@]1(c2ccc3ccccc3c2)CC1(c1ccccc1)c1ccccc1` registered a melting point of 195 to 196 °C.

`CN(C)C1(c2cccc(F)c2)CCC2(CC1)NCCc1c2[nH]c2ccccc12` (configuration not stated): the melting point is 220 to 225 °C.

Turning to `O=C1Nc2ccccc2N(C(=O)N2CCCC(CCCN3CCOCC3)C2)c2ncccc21` (configuration not stated), the melting point is 161 to 163 °C.

In turn, `O=C1CCc2ncc3c(c21)CCO3` came in with a melting point of 148 to 149 °C.

The molecule `O=C(Cc1ccccn1)c1ccc2ncccc2c1` showed a melting point of 104 °C.

With `C=CCn1c(N)c(N=O)c(=O)n(CC=C)c1=O`, the melting point was 170 to 180 °C.

Take `O=C(Cc1ccccc1)OC1c2ccccc2C(=O)N1c1ccc2ccc(Cl)nc2n1` (configuration not stated): the melting point lay within 222 to 224 °C.

The molecule `CCCC(=O)c1cnc2c(OC)cccc2c1Nc1ccccc1CO` displayed a melting point of 159 to 161 °C.

`COC(=O)C[C@@H](CC(=O)C=Cc1c(-c2ccc(F)cc2)c(-c2ccc(F)cc2)c(C(=O)Nc2ccc(S(N)(=O)=O)cc2)n1C(C)C)O[Si](C)(C)C(C)(C)C` showed a melting point of 108 to 110 °C.

The molecule `CSc1c(C2=C(c3cn(C)c4ccccc34)C(=O)NC2=O)c2ccccc2n1C` gave a melting point of 281 to 283 °C.

In turn, `Cc1ccc(-c2ccc3c(c2)C=C(C(=O)Nc2ccc(C(O)CN4CCCCC4)cc2)CCO3)cc1` (configuration not stated) showed a melting point of 212 to 213 °C.

Molecule `CCOc1ccc2c(-c3ccccc3)c([N+](=O)[O-])oc2c1` registered a melting point of 109 to 111 °C.

With `CSCC[C@@H](NC(=O)[C@H](Cc1ccc(O)cc1)NC(=O)OC(C)(C)C)C(=O)NCC(=O)O`, the melting point was 194 °C.

Molecule `O=C(O)CS(=O)(=O)Oc1cccc(-c2cn3c(n2)sc2ccccc23)c1` displayed a melting point of 156 to 158 °C.

For the molecule `CCOc1nn(-c2ccc(C(F)(F)F)cn2)cc1CCCOc1ccc(CCC(=O)O)cc1OC`, the melting point was 131 to 132 °C.

With `CC(C)C(C(=O)O)N1CCCNC1=O` (configuration not stated), the melting point is 176 to 177 °C.

For `CCOC(=O)c1c[nH]c(SC(F)(F)F)c1-c1ccc(Cl)cc1`, the melting point was in the range of 162 to 164 °C.

Molecule `CC(C)(O)C#Cc1ccc(F)cc1` had a melting point of 124 °C.

The molecule `CC1(C)OC(=S)Nc2ccc(-c3cc(F)cc(F)c3)cc21` displayed a melting point of 224 to 225 °C.

Consider `CN(C(=O)N1Cc2nc(C(O)c3ccccc3)n(Cc3ccccc3)c2CC1CO)c1ccccc1` (configuration not stated), for which the melting point was 107 to 120 °C.

The molecule `CSc1cc(C)nc(SC)c1NC(=O)CCCSc1nc2ccccc2o1` displayed a melting point of 149 to 150 °C.

In the case of `N=C(N)NCCCOc1cccc2c1NC(=O)C(CC(=O)O)C2` (configuration not stated), the melting point lay within 151 to 155 °C.

As to `CCc1c(-c2ccc(OCc3ccccc3)cc2)c2c(CO)cc3c(OCc4ccccc4)ccc1n32`, the melting point lay within 133 to 134 °C.

`CC(=O)Oc1ccc(C(=O)O)cc1-c1ccccc1`: the melting point was in the range of 185 to 187 °C.

`COc1cccc(-c2nc(-c3ccc(S(C)=O)cc3)[nH]c2-c2ccncc2)c1` (configuration not stated) came in with a melting point of 167 to 168 °C.

For `CC(=O)NC(C)(C)c1ccc(C(C)O)cc1` (configuration not stated), the melting point fell in the range of 146 to 149 °C.

Turning to `CC(C)C1(C)N=C(c2nc3occ(Cl)c3cc2C(=O)O)NC1=O` (configuration not stated), the melting point lay within 239 to 240 °C.

In the case of `COC(=O)C1C(c2ccc(F)c(C)c2)=CCCC1(C)C` (configuration not stated), the melting point fell in the range of 136 to 138 °C.

In turn, `Clc1ccc([C@@H]2CNc3c(ccc4ccccc34)S2)cc1` gave a melting point of 205 to 206 °C.

`CNC(=O)N(c1ccccc1)c1cccc2ccccc12`: the melting point stood at 146 °C.

`O=C(O)c1cc(Br)nn1-c1ncccc1Cl` registered a melting point of 200 to 201 °C.

Take `CC(=O)NCCCc1c(Cl)ccc2occc12`: the melting point was in the range of 82 to 83 °C.

In the case of `Cc1oc(-c2ccccc2)nc1CCOc1ccc(C[C@H](NC(=O)C=Cc2ccccc2C(F)(F)F)C(=O)O)cc1`, the melting point fell in the range of 170 to 172 °C.

`N#Cc1cnn(-c2ccc(Cl)c(Cl)c2Cl)c1N(C(=O)Oc1ccccc1)C(=O)Oc1ccccc1` returned a melting point of 206 to 208 °C.

Turning to `C1=C(c2c[nH]cn2)c2ccccc2C1`, the melting point fell in the range of 232 to 240 °C.

In turn, `CCCCCCCCc1c(CCCCCCCC)c2cc(Br)sc2c2sc(Br)cc12` returned a melting point of 63.8 to 65.2 °C.

Regarding `C=CCOC(C(Cc1ccc(Cl)cc1)n1cncn1)C1(C)COCOC1` (configuration not stated), the melting point fell in the range of 113 to 115 °C.

For `CCOc1ccc2c(c1)C(C)(c1cc(C(=O)N3CC4CCN(C)C4C3)ccc1Cl)C(=O)N2S(=O)(=O)c1ccc(C(=O)NC(C)(C)C)cc1OC` (configuration not stated), the melting point amounted to 130 °C.

`NC(=O)N(c1ccccc1-c1nc(C2CC2)no1)C1CN2CCC1CC2` (configuration not stated) had a melting point of 229 to 233 °C.

Consider `Cc1ccc(S(=O)(=O)NC2CCCCN(c3nc4c(c(=O)n(C)c(=O)n4C)n3Cc3ccccc3)C2)cc1` (configuration not stated), for which the melting point was 80.2 to 88.2 °C.

On to `CN(C)c1ccc(-c2cc(=O)c3ccc(O)c(O)c3o2)cc1`, for which the melting point is 242 to 245 °C.

`CC(CC(=O)O)(c1ccc(OCc2ccc3ccccc3n2)cc1)c1ccc(OCc2ccc3ccccc3n2)cc1`: the melting point was 94 to 96 °C.

Molecule `N#CC1(Nc2ccccc2)CCN([C@@H]2CC[C@H]3CCCc4cccc2c43)CC1` (racemic) came in with a melting point of 142 °C.

`CN1CC(CNC(=O)C(F)(F)F)c2c[nH]c3cccc(c23)C1=O` (configuration not stated): the melting point fell in the range of 174 to 177 °C.

Molecule `CCn1nc(OCC(=O)C(C)(C)C)c(-c2ccc(F)cc2)c1-c1ccc(S(N)(=O)=O)cc1` showed a melting point of 196 to 198 °C.

With `CN(C)CCN1C(=O)C(NC(=O)c2ccc(Cl)cc2)C(C)(C)SC1=S` (configuration not stated), the melting point is 152 to 153 °C.

Regarding `O=C(Nc1ccc(-n2nc(C(F)(F)F)cc2C(F)(F)F)cc1)c1ccc(CO)cc1`, the melting point fell in the range of 213 to 214 °C.

Turning to `C=CC1CC2=CCCCC2C2CCC3(C)C(O)CCC3C12` (configuration not stated), the melting point lay in the range of 117 to 121 °C.

`CCN(CC)CCn1nc2c3c(c(NC(=O)CN(CCOCc4ccccc4)Cc4ccccc4)ccc31)Oc1ccc(O)cc1-2` came in with a melting point of 165 to 168 °C.

As for `O=Cc1ccc(C(=O)Nc2ccncc2)cc1`, the melting point worked out at 161 °C.

Molecule `CNc1nnc(C(C)(C)CCl)s1` had a melting point of 91 to 93 °C.

`O=C(c1cccs1)c1cnn2c(-c3cccc(-c4ccn(CC5CCC5)n4)c3)ccnc12` returned a melting point of 60 °C.

The molecule `N#Cc1ccc(-c2ccc(SC3SCC(O)C(O)C3O)cc2)cc1` (configuration not stated) yielded a melting point of 168 °C.

`O=C1CCC(c2cccc(F)c2)(c2cccc(F)c2)CC1`: the melting point turned out to be 95 °C.
